Results from patent publication US20140148470A1, “PYRIMIDINE COMPOUNDS FOR TREATING HAIRLOSS” (Boehringer Ingelheim International GmbH, priority 2012, published 2014).
Like-named read-outs stand apart in the source and are kept apart here.

Legend:
human CRTH2 = molecular target: T1, human CRTH2 (Homo sapiens, UniProt Q9Y5Y4); experiment: Measurement of Ca2+ mobilization in the human CRTH2-transfected L1.2 cell line; type: cell-based; conditions: PGD2-induced Ca2+ mobilization, human CRTH2-transfected L1.2 cells; compounds as yielded by solid phase synthesis, purity about 40 to 90%; read-out: Activity class (IC50)
T1 construct: expressed in transfected cells; host or cells: L1.2 cells (pEAK expression vector, puromycin selection)
T1 sequence (Q9Y5Y4 1-395): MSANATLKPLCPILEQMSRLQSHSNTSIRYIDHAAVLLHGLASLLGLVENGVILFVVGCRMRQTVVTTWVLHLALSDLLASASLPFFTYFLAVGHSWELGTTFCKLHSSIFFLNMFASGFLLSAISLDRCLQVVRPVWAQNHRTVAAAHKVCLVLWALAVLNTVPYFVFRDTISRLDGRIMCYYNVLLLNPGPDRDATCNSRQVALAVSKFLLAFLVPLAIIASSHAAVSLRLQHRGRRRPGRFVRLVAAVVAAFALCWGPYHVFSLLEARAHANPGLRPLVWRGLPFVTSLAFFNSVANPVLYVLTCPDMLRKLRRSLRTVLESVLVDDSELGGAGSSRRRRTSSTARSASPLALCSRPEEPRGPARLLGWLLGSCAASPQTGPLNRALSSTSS
Description: [Preparation of Human CRTH2-Transfected L1. 2 Cell Line]
Human CRTH2 cDNA was amplified from human eosinophil cDNA with gene specific primers containing restriction sites for cloning into pEAK vector (Edge Bio Systems). The human CRTH2 cDNA was cloned into the mammalian expression vector pEAK. This expression plasmid ([…]) was transfected into L1. 2 cells, at a cell density of 1×10^7 cells/[…], by using electroporation apparatus (Gene Pulser II, BioRad) at 250V/[…]. One day after the transfection, puromycin (1 ug/mi, Sigma) was added into the cell culture plates. Two weeks after the transfection, grown cells were picked up for further growth.
[Measurement of Ca^2+ Mobilization in the Human CRTH2-Transfected L1. 2 Cell Line]
Ca^2+ loading buffer was prepared by mixing […] of Fluo-3AM (2 mM in DMSO, final 1 uM, Molecular Probes) and 10 µl of pluronic F-127 (Molecular Probes) and diluting the resulting mixture in 10 ml of Ca^2+ assay buffer (20 mM HEPES pH 7.6, 0.1% BSA, 1 mM probenecid, Hanks' solution). The CRTH2 transfected cells which were prepared in Example 1 were washed with PBS, resuspended in Ca2+ loading buffer at […] cells/ml, and incubated for 60 min at room temperature. After incubation, cells were washed and resuspended in Ca^2+ assay buffer, then dispensed into transparent-bottom 96-well plates (# 3631, Costar) at 2×10^5 cells/well. Cells were incubated with various concentrations of test compound for 5 minutes at room temperature. The emitted […] fluorescence was measured on FDSS6000, a Ca^2+-measurement apparatus (Hamamatsu Photonics, Hamamatsu, Japan).
The data corresponds to the compounds as yielded by solid phase synthesis and thus to levels of purity of about 40 to 90%. For practical reasons, the compounds are grouped in four classes of activity as follows: IC50=A (< or =) 10 nM<B (< or =) 100 nM<C (< or =) 500 nM<D. The compounds of the present invention also show excellent selectivity, and potent activity in Assays 2,3 and 4 described above.

[1] = test system: explanted human hair follicles; conditions: cited from earlier work
CRTH2 (GPR44) = molecular target: T2, CRTH2 (GPR44) (Mus musculus, UniProt Q9Z2J6); conditions: topical to skin, cited from earlier work
T2 construct: host or cells: skin of wild-type mice, in vivo
T2 sequence (Q9Z2J6 1-382): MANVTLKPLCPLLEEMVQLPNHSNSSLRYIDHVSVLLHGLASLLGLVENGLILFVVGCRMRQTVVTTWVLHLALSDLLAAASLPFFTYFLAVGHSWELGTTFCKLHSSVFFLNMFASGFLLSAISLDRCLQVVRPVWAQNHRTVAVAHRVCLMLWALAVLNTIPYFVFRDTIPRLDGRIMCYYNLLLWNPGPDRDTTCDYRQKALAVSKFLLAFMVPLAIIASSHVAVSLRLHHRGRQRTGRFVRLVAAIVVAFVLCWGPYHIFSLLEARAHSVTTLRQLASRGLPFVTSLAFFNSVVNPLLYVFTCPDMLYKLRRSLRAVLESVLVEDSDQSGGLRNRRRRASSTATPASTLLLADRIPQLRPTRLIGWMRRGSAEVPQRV

Row | IC50 (human CRTH2) | SMILES | further results
1 | < 0.01 µM | CN(C)c1nc(Cc2ccc(NC(=O)c3ccc4ccccc4c3)cc2)ncc1CC(=O)O [Example 10] | 
2 | < 0.01 µM | CN(C)c1nc(Cc2ccc(NC(=O)c3ccc(C(F)(F)F)cc3)cc2)nc(N(C)C)c1CC(=O)O [Example 14] | 
3 | < 0.01 µM | CN(C)c1nc(Cc2ccc(NC(=O)c3ccc4ccccc4c3)cc2)nc(Cl)c1CC(=O)O [Example 1] | 

Further lines, the compound ahead of its results:

Row | SMILES | IC50 (human CRTH2) | further results
4 | CN(C)c1nc(Cc2ccc(NC(=O)c3ccc4ccccc4c3)cc2)nc(Cl)c1CC(N)=O [Example 22] | 0.01 to 0.1 µM | 
5 | CN(C)c1nc(Cc2ccc(NC(=O)c3ccc4ccccc4c3)cc2)nc(Cl)c1Cc1nnn[nH]1 [Example 21] | < 0.01 µM | 
6 | O=C(O)Cc1c(Cl)nc(Cc2ccc(NC(=O)c3ccc4ccccc4c3)cc2)nc1Cl [Example 20] | < 0.01 µM | 
7 | CCCCC[C@H](O)/C=C/[C@H]1C(=O)C[C@H](O)[C@@H]1C/C=C\CCCC(=O)O [PGD2, prostaglandin D2] |  | hair growth [1]: inhibited hair growth; hair growth (CRTH2 (GPR44); CRTH2 (GPR44) knockout mice): not; hair growth (CRTH2 (GPR44); wild-type mice): inhibited hair growth
